Measurements published in ChEMBL document CHEMBL4359901, “Cyclic enaminone as new chemotype for selective cyclooxygenase-2 inhibitory, anti-inflammatory, and analgesic activities” (Eur J Med Chem, 2019).

What was measured:
[1] = tested on: Rattus norvegicus; assay: Antiinflammatory activity in Sprague-Dawley rat model of carrageenan-induced thermal hyperalgesia assessed as paw withdrawal latency pressure at 50 mg/kg, po administered 1 hr prior to carrageenan challenge and measured after 1 hr by Von-frey test (reference value: 159.88 +/- 4.66 g); assay type: functional
[2] = Ulcerogenicity in Sprague-Dawley rat assessed as formation of ulcer at 30 mg/kg, po after 1 hr by microscopic analysis; assay type: toxicity, organism-based; settings: in vivo
[3] = tested on: Rattus norvegicus; assay: Antiinflammatory activity in Sprague-Dawley rat model of carrageenan-induced thermal hyperalgesia assessed as paw withdrawal latency time at 30 mg/kg, po administered 1 hr prior to carrageenan challenge and measured after 3 hrs by planter test (reference value: 4.13 +/- 0.45 sec); assay type: functional
[4] = tested on: Rattus norvegicus; assay: Analgesic activity in Wistar albino rat assessed as reaction time at 12.5 mg/kg, ip measured after 180 mins for 15 secs by hot plate method (reference value: 3.87 +/- 0.38 sec); assay type: functional
[5] = tested on: Rattus norvegicus; assay: Analgesic activity in Wistar albino rat assessed as reaction time at 25 mg/kg, ip measured after 30 mins for 15 secs by hot plate method (reference value: 4.21 +/- 0.41 sec); assay type: functional
[6] = tested on: Rattus norvegicus; assay: Antiinflammatory activity in Sprague-Dawley rat model of carrageenan-induced thermal hyperalgesia assessed as paw withdrawal latency time at 30 mg/kg, po administered 1 hr prior to carrageenan challenge and measured after 1 hr by planter test (reference value: 8.88 +/- 0.52 sec); assay type: functional
[7] = Cardiotoxicity in Sprague-Dawley rat assessed as SBP rate at 50 mg/kg; assay type: toxicity, organism-based; settings: in vivo
[8] = tested on: Rattus norvegicus; assay: Antiinflammatory activity in Sprague-Dawley rat model of carrageenan-induced thermal hyperalgesia assessed as paw withdrawal latency pressure at 50 mg/kg, po administered 1 hr prior to carrageenan challenge and measured after 5 hrs by Randall-Selitto test (reference value: 224.08 +/- 7.12 g); assay type: functional
[9] = tested on: Rattus norvegicus; assay: Antiinflammatory activity in Sprague-Dawley rat model of carrageenan-induced thermal hyperalgesia assessed as paw withdrawal latency pressure at 50 mg/kg, po administered 1 hr prior to carrageenan challenge and measured after 3 hrs by Randall-Selitto test (reference value: […] g); assay type: functional
[10] = tested on: Rattus norvegicus; assay: Antiinflammatory activity in Sprague-Dawley rat model of carrageenan-induced thermal hyperalgesia assessed as paw withdrawal latency pressure at 30 mg/kg, po administered 1 hr prior to carrageenan challenge and measured after 4 hrs by Von-frey test (reference value: 146.61 +/- 1.58 g); assay type: functional
[11] = Antioxidant activity assessed as DPPH radical scavenging activity incubated for 20 mins by spectrophotometric method; assay type: functional
[12] = tested on: Rattus norvegicus; assay: Antiinflammatory activity in Sprague-Dawley rat model of carrageenan-induced thermal hyperalgesia assessed as paw withdrawal latency pressure at 50 mg/kg, po administered 1 hr prior to carrageenan challenge and measured after 3 hrs by Von-frey test (reference value: 146.61 +/- 1.58 g); assay type: functional
[13] = Ulcerogenicity in Sprague-Dawley rat assessed as formation of ulcer at 50 mg/kg, po after 1 hr by microscopic analysis; assay type: toxicity, organism-based; settings: in vivo
[14] = Antioxidant activity assessed as DPPH radical scavenging activity at 100 uM/ml incubated for 20 mins by spectrophotometric method relative to control; assay type: functional
[15] = tested on: Rattus norvegicus; assay: Analgesic activity in Wistar albino rat assessed as reaction time at 25 mg/kg, ip measured after 120 mins for 15 secs by hot plate method (reference value: 4.32 +/- 0.52 sec); assay type: functional
[16] = Selectivity index, ratio of IC50 for inhibition of ovine COX1 to IC50 for inhibition of recombinant human COX2
[17] = tested on: Rattus norvegicus; assay: Antiinflammatory activity in Sprague-Dawley rat model of carrageenan-induced thermal hyperalgesia assessed as paw withdrawal latency pressure at 30 mg/kg, po administered 1 hr prior to carrageenan challenge and measured after 3 hrs by Randall-Selitto test (reference value: 176.84 +/- 8.1 g); assay type: functional
[18] = tested on: Rattus norvegicus; assay: Antiinflammatory activity in Sprague-Dawley rat model of carrageenan-induced thermal hyperalgesia assessed as paw withdrawal latency time at 50 mg/kg, po administered 1 hr prior to carrageenan challenge and measured after 1 hr by planter test (reference value: 8.88 +/- 0.52 sec); assay type: functional
[19] = tested on: Rattus norvegicus; assay: Antiinflammatory activity in Sprague-Dawley rat model of carrageenan-induced thermal hyperalgesia assessed as paw withdrawal latency pressure at 30 mg/kg, po administered 1 hr prior to carrageenan challenge and measured after 2 hrs by Von-frey test (reference value: 146.47 +/- 5.12 g); assay type: functional
[20] = tested on: Rattus norvegicus; assay: Antiinflammatory activity in Sprague-Dawley rat model of carrageenan-induced thermal hyperalgesia assessed as paw withdrawal latency pressure at 50 mg/kg, po administered 1 hr prior to carrageenan challenge and measured after 3 hrs by Randall-Selitto test (reference value: 176.84 +/- 8.1 g); assay type: functional
[21] = tested on: Rattus norvegicus; assay: Antiinflammatory activity in Wistar albino rat assessed as reduction in carrageenan-induced paw edema at 25 mg/kg, ip measured after 1 hr by plethysmometric method (reference value: 1.43 +/- 0.19 ml); assay type: functional
[22] = tested on: Rattus norvegicus; assay: Antiinflammatory activity in Sprague-Dawley rat model of carrageenan-induced thermal hyperalgesia assessed as paw withdrawal latency pressure at 30 mg/kg, po administered 1 hr prior to carrageenan challenge and measured after 1 hr by Von-frey test (reference value: 159.88 +/- 4.66 g); assay type: functional
[23] = tested on: Rattus norvegicus; assay: Analgesic activity in Wistar albino rat assessed as reaction time at 25 mg/kg, ip measured after 60 mins for 15 secs by hot plate method (reference value: 4.67 +/- 0.52 sec); assay type: functional
[24] = Antioxidant activity assessed as DPPH radical scavenging activity at 10 uM/ml incubated for 20 mins by spectrophotometric method relative to control; assay type: functional
[25] = biological target: Prostaglandin G/H synthase 1 (Ovis aries) (UniProt P05979); assay: Inhibition of ovine COX1 assessed as reduction in PGF2alpha at 10 uM incubated for 2 mins using arachidonic acid as substrate by ELISA relative to control
[26] = biological target: Prostaglandin G/H synthase 2 (Homo sapiens) (UniProt P35354); assay: Inhibition of recombinant human COX2 assessed as reduction in PGF2alpha at 10 uM incubated for 2 mins using arachidonic acid as substrate by ELISA relative to control
[27] = tested on: Rattus norvegicus; assay: Antiinflammatory activity in Sprague-Dawley rat model of carrageenan-induced thermal hyperalgesia assessed as paw withdrawal latency pressure at 30 mg/kg, po administered 1 hr prior to carrageenan challenge and measured after 3 hrs by Von-frey test (reference value: 31.65 +/- 3.33 g); assay type: functional
[28] = tested on: Rattus norvegicus; assay: Antiinflammatory activity in Sprague-Dawley rat model of carrageenan-induced thermal hyperalgesia assessed as paw withdrawal latency pressure at 30 mg/kg, po administered 1 hr prior to carrageenan challenge and measured after 1 hr by Randall-Selitto test (reference value: 246.55 +/- 1.05 g); assay type: functional
[29] = tested on: Rattus norvegicus; assay: Analgesic activity in Wistar albino rat assessed as reaction time at 12.5 mg/kg, ip measured after 60 mins for 15 secs by hot plate method (reference value: 4.67 +/- 0.52 sec); assay type: functional

Structure (SMILES): CC(=O)N(C1=CC(=O)CCC1)c1ccc(Cl)cc1
- Activity [1]: 170 g
- Activity [2]: Non-Toxic
- Time [3]: 6.95 s
- Time [4]: 8.22 s
- Time [5]: 6.86 s
- Time [6]: 10.58 s
- Activity [7]: Non-Toxic
- Activity [8]: 266.61 g
- Activity [9]: 265.61 g
- Activity [10]: 159.47 g
- IC50 [11]: 48 µM
- Activity [12]: 169.23 g
- UI [13]: 0
- Activity [14]: 96.2%
- Time [15]: 11.58 s
- Ratio IC50 [16]: 109
- Activity [17]: 249.49 g
- Time [18]: 12.25 s
- Activity [19]: 157.83 g
- Activity [20]: 263.26 g
- Activity [21]: 1.25 mL
- Activity [22]: 166.7 g
- Time [23]: 7.27 s
- Activity [24]: 6.18%
- inhibition [25]: 10.8%
- inhibition [26]: 96.9%
- Activity [27]: 152.92 g
- Activity [28]: 261.72 g
- Time [29]: 6.85 s
